Results: patent US12617783B2, “Heterocyclic GLP-1R agonists” (BIOMEA FUSION, INC., priority 2024, dated 2026)

Biological target: T1, human GLP-1R (Homo sapiens, UniProt P43220)
T1 construct: host or cells: HEK293
Experiment: GLP-1R cAMP assay (Example B1a, HTRF, 30 min at room temperature)
Type: cell-based
Conditions: cAMP accumulation in HEK293 expressing human GLP-1R, no BETP, 30 min room temperature (Method B1a, compounds ID 1-609), Table 1; read-out: EC50
How it was run: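 Competitive HTRF read-out of cAMP after 30 min room-temperature stimulation, BETP absent, of human GLP-1R-HEK293 cells (1,000/well) in HEPES buffer with 500 μM IBMX and 0.1% BSA. Activation normalised to GLP-1(7-37) positive control. EC50 from 4-parameter non-linear regression.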

T1 sequence (P43220 24-463): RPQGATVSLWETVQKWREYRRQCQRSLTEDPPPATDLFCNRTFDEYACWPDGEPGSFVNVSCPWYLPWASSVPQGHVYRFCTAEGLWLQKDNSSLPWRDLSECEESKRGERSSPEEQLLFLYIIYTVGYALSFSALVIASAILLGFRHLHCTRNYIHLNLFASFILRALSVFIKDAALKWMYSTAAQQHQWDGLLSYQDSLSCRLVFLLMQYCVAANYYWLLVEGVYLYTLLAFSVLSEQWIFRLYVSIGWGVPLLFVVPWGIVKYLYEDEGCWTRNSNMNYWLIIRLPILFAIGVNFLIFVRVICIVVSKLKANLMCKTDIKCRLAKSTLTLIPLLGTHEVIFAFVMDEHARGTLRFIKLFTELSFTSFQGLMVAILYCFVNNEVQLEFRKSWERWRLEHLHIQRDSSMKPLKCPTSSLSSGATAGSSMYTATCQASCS

Going from `Cc1cc(-n2nc3c(c2-n2ccn(-c4ccc5c(cnn5C)c4F)c2=O)[C@@H]2CC[C@H](C3)N2C(=O)c2cc3sc(C4CCOC(C)(C)C4)nc3n2[C@@]2(c3noc(=O)[nH]3)C[C@@H]2C)cc(C)c1F` (stereo partly drawn) [Compound 245, 3-[(1S,2S)-1-[2-(2,2-dimethyltetrahydropyran-4-yl)-5-[(1S,8R)-4-(4-fluoro-3,5-dimethyl-phenyl)-3-[3-(4-fluoro-1-methyl-indazol-5-yl)-2-oxo-imidazol-1-yl]-4,5,11-triazatricyclo[6.2.1.02,6]undeca-2,5-diene-11-carbonyl]pyrrolo[2,3-d]thiazol-4-yl]-2-methyl-cyclopropyl]-4H-1,2,4-oxadiazol-5-one] to `Cc1cc(-n2nc3c(c2-n2ccn(-c4ccc5c(cnn5C)c4F)c2=O)[C@@H]2CC[C@H](C3)N2C(=O)c2cc3sc([C@H]4CCOC(C)(C)C4)nc3n2[C@@]2(c3noc(=O)[nH]3)C[C@@H]2C)cc(C)c1F` [Compound 306, 3-[(1S,2S)-1-[2-[(4S)-2,2-dimethyltetrahydropyran-4-yl]-5-[(1S,8R)-4-(4-fluoro-3,5-dimethyl-phenyl)-3-[3-(4-fluoro-1-methyl-indazol-5-yl)-2-oxo-imidazol-1-yl]-4,5,11-triazatricyclo[6.2.1.02,6]undeca-2,5-diene-11-carbonyl]pyrrolo[2,3-d]thiazol-4-yl]-2-methyl-cyclopropyl]-4H-1,2,4-oxadiazol-5-one], the EC50 falls from 5070 nM to 2450 nM (2.1-fold). The second is the more potent here.

First: Cc1cc(-n2nc3c(c2-n2ccn(-c4ccc5c(cnn5C)c4F)c2=O)[C@@H]2CC[C@H](C3)N2C(=O)c2cc3cc([C@H]4CCOC(C)(C)C4)ccc3n2[C@@]2(C(=O)NC3CC3)C[C@@H]2C)cc(C)c1F [Compound 246, cis-(1S,2S)-N-cyclopropyl-1-[5-[(4S)-2,2-dimethyltetrahydropyran-4-yl]-2-[(1S,8R)-4-(4-fluoro-3,5-dimethyl-phenyl)-3-[3-(4-fluoro-1-methyl-indazol-5-yl)-2-oxo-imidazol-1-yl]-4,5,11-triazatricyclo[6.2.1.02,6]undeca-2,5-diene-11-carbonyl]indol-1-yl]-2-methyl-cyclopropanecarboxamide]
Second: Cc1cc(-n2nc3c(c2-n2ccn(-c4ccc5c(cnn5C)c4C)c2=O)[C@@H]2CC[C@H](C3)N2C(=O)c2cc3cc([C@H]4CCOC(C)(C)C4)ccc3n2[C@@]2(c3noc(=O)[nH]3)C[C@@H]2C)cc(C)c1F [Compound 305, 3-((1S,2S)-1-(2-((45,7R)-3-(3-(1,4-dimethyl-1H-indazol-5-yl)-2-oxo-2,3-dihydro-1H-imidazol-1-yl)-2-(4-fluoro-3,5-dimethylphenyl)-2,4,5,6,7,8-hexahydro-4,7-epiminocyclohepta [c]pyrazole-9-carbonyl)-5-((S)-2,2-dimethyltetrahydro-2H-pyran-4-yl)-1H-indol-1-yl)-2-methylcyclopropyl)-1,2,4-oxadiazol-5 (4H)-one]
The EC50 of the first is 3.4-fold higher: 699 nM for the first, 206 nM for the second. The second is the more potent here.

In the case of `Cc1cc(-n2nc3c(c2-n2ccn(-c4ccc5c(cnn5C)c4)c2=O)[C@@H]2CC[C@H](C3)N2C(=O)c2cc3cc([C@H]4CCOC(C)(C)C4)ccc3n2[C@@]2(c3noc(=O)[nH]3)C[C@@H]2C)cc(C)c1F` [Compound 302, 3-((1S,2S)-1-(5-((S)-2,2-dimethyltetrahydro-2H-pyran-4-yl)-2-((4S,7R)-2-(4-fluoro-3,5-dimethylphenyl)-3-(3-(1-methyl-1H-indazol-5-yl)-2-oxo-2,3-dihydro-1H-imidazol-1-yl)-2,4,5,6,7,8-hexahydro-4,7-epiminocyclohepta [c]pyrazole-9-carbonyl)-1H-indol-1-yl)-2-methylcyclopropyl)-1,2,4-oxadiazol-5 (4H)-one], the EC50 is reported as 52.9 nM.
